Assay results as given in patent US20030114666A1, “Antibacterial agents” (priority 2001, published 2003).
In brackets after ≈: the same amount, converted by molar mass. Where two headings read alike, the source gives them in different places.

Key:
E. coli B90 = test: Test A antibacterial assay, standard microtitration (MIC); format: cell-based; conditions: Gram negative, E. coli B90
Experimental: (§1) Test A-Antibacterial Assay
(§2) The compounds of the present invention were tested against an assortment of Gram-negative and Gram-positive organisms using standard microtitration techniques (Cohen, et al., Antimicrob. Agents Chemother., 1985;28:766; Heifetz, et al., Antimicrob. Agents Chemother:, 1974;6:124). […]

E. coli MC 4100 = test: as above; format: cell-based; conditions: Gram negative, E. coli MC 4100
Experimental: as §1, §2

E. coli Tol C = test: as above; format: cell-based; conditions: for Minimum Inhibitory Concentrations E. coli Tol C: Gram negative
Experimental: as §1, §2

E. faecalis RB1 = test: as above; format: cell-based; conditions: Gram positive, E. faecalis RB1
Experimental: as §1, §2

S. aureus 29213 = test: as above; format: cell-based; conditions: Gram positive, S. aureus 29213
Experimental: as §1, §2

S. pyogenes C203 = test: as above; format: cell-based; conditions: Gram positive, S. pyogenes C203
Experimental: as §1, §2

E. coli gyrase = E. coli gyrase (Escherichia coli, UniProt P0AES4+P0AES6); test: biochemical
Sequence of E. coli gyrase (P0AES4 whole entry, one chain of several): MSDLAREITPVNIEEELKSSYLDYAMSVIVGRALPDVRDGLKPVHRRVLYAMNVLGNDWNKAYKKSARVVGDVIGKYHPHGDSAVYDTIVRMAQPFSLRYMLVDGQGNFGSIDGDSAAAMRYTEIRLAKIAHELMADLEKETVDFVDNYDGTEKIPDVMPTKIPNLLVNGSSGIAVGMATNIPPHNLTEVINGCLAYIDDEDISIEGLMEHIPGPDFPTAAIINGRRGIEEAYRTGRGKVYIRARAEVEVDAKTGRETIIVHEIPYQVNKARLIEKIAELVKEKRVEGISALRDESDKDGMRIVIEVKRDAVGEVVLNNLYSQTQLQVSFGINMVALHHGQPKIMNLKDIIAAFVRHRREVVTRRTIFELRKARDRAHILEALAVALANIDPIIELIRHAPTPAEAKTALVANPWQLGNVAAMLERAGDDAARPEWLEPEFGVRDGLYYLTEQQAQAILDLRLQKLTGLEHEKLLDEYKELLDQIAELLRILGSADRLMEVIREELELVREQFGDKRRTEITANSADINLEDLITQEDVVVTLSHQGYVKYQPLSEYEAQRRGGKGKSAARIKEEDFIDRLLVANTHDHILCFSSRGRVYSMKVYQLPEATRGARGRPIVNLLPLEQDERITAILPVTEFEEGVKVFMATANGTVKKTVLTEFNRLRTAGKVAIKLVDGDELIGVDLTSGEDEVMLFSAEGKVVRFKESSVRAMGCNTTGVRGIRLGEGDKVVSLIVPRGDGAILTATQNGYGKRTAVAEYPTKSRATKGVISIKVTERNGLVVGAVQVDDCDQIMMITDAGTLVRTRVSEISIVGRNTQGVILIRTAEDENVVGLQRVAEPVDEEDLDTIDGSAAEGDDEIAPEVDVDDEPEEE

N. gonorrhoeae 2637 = test: Test D cross resistance antibacterial assay (MIC); format: cell-based, Neisseria gonorrhoeae; conditions: parent strain, derivative of MS11
Experimental: (§3) Test D-Cross Resistance Antibacterial Assay
(§4) The compounds of the present invention were tested against an assortment of ciprofloxacin resistant E. coli and S. aureus organisms described below using standard microtitration techniques (Cohen, et al., Antimicrob. Agents Chemother., 1985;28:766; Heifetz, et al., Antimicrob. Agents Chemother., 1974;6:124). […].
N. gonorrhoeae 2637 (N.g. 2637) is a derivative of Neisseria gonorrhoeae MS11 containing a TAC-LAC recA to allow for control of homologous recombination [Tonjum T. et al. Molecular Microbiology 1995, 16, 451-64].

N. gonorrhoeae 2709 = test: Test D cross resistance antibacterial assay (MIC); format: cell-based, Neisseria gonorrhoeae; conditions: for MIC fold increase N. g. 2709 (in parentheses): relative to MIC against N. g. 2637
Experimental: as §3, §4
N. gonorrhoeae 2709 (N.g. 2709): Isogenic to N. gonorrhoeae 2637 contains gyrA quinolone-resistant determining region (QRDR) mutations (S91F D95G).

N. gonorrhoeae 2693 = test: Test D cross resistance antibacterial assay (MIC); format: cell-based, Neisseria gonorrhoeae; conditions: for MIC fold increase N. g. 2693 (in parentheses): relative to MIC against N. g. 2637
Experimental: as §3, §4
N. gonorrhoeae 2693 (N.g. 2693): Isogenic to N. gonorrhoeae 2709 containing parC QRDR mutations [P88S and E91K].

S. aureus UC-76 = test: Test D cross resistance antibacterial assay (MIC); format: cell-based; conditions: wild type sensitive laboratory strain
Experimental: as §3, §4
S. aureus UC-76: Typical sensitive laboratory strain (Wild type).

S. aureus 2552 = test: Test D cross resistance antibacterial assay (MIC); format: cell-based; conditions: for MIC fold increase S. aureus 2552 (in parentheses): relative to MIC against S. aureus UC-76
Experimental: as §3, §4

S. aureus 2554 = test: Test D cross resistance antibacterial assay (MIC); format: cell-based; conditions: for MIC fold increase S. aureus 2554 (in parentheses): relative to MIC against S. aureus UC-76
Experimental: as §3, §4
S. aureus 2554: Isogenic to S. aureus 2552, with point mutation at position 80 of grlA subunit.

S. aureus 2558 = test: Test D cross resistance antibacterial assay (MIC); format: cell-based; conditions: for MIC fold increase S. aureus 2558 (in parentheses): relative to MIC against S. aureus UC-76
Experimental: as §3, §4
S. aureus 2558: Isogenic to S. aureus 2554, with point mutation at position 84 of gyrA subunit.

S. pyogenes = test: Test C in vivo activity, median protective dose in mice given lethal systemic infections; conditions: PO, lethal systemic infection with S. pyogenes

Row | Compound | Minimum Inhibitory Concentrations E. coli B90 (E. coli B90) | Minimum Inhibitory Concentrations E. coli MC 4100 (E. coli MC 4100) | Minimum Inhibitory Concentrations E. coli Tol C (E. coli Tol C) | Minimum Inhibitory Concentrations E. faecalis RB1 (E. faecalis RB1) | Minimum Inhibitory Concentrations S. aureus 29213 (S. aureus 29213) | Minimum Inhibitory Concentrations S. pyogenes C203 (S. pyogenes C203) | IC50 (E. coli gyrase) | MIC fold increase N. g. 2709 (in parentheses) (N. gonorrhoeae 2709) | MIC fold increase N. g. 2693 (in parentheses) (N. gonorrhoeae 2693) | MIC fold increase S. aureus 2552 (in parentheses) (S. aureus 2552) | MIC fold increase S. aureus 2554 (in parentheses) (S. aureus 2554) | MIC fold increase S. aureus 2558 (in parentheses) (S. aureus 2558) | also measured
1 | 1-Cyclopropyl-7-(5,5-difluoro-4-hydroxy-4,5,6,7-tetrahydrobenzo[b]thiophen-2-yl)-6-fluoro-8-methyl-1H-quinazolinedione [Example 23b] | 0.13 µg/mL | 16.0 µg/mL | <0.06 µg/mL | 1.0 µg/mL | 0.5 µg/mL | 2.0 µg/mL |  |  |  |  |  |  | IC50 (E. coli gyrase; supercoiling of relaxed pBR322, 30 minutes at 37° C.): 1000 nM
2 | 7-(3-[1-Amino-1-(2-fluorophenyl)methyl]pyrrolidin-1-yl}-1-cyclopropyl-6-fluoro-6-methyl-1H-quinazolinedione Hydrochloride [Example 7j] | 0.25 µg/mL | 8.0 µg/mL | 0.06 µg/mL | 0.25 µg/mL | 0.13 µg/mL | 0.03 µg/mL | 800 nM | (4x) | (8x) | (1x) | (1x) | (1x) | Minimum Inhibitory Concentrations N. g. 2637 (N. gonorrhoeae 2637): 0.13 µg/mL; Minimum Inhibitory Concentrations N. g. 2709 (N. gonorrhoeae 2709; gyrA QRDR mutations (S91F D95G)): 0.5 µg/mL; Minimum Inhibitory Concentrations N. g. 2693 (N. gonorrhoeae 2693; gyrA plus parC QRDR mutations [P88S and E91K]): 1.0 µg/mL; Minimum Inhibitory Concentrations S. aureus UC-76 (S. aureus UC-76): 0.06 µg/mL; Minimum Inhibitory Concentrations S. aureus 2552 (S. aureus 2552; upregulated norA pump): 0.06 µg/mL; Minimum Inhibitory Concentrations S. aureus 2554 (S. aureus 2554; norA plus point mutation at position 80 of grlA): 0.06 µg/mL; Minimum Inhibitory Concentrations S. aureus 2558 (S. aureus 2558; norA, grlA plus point mutation at position 84 of gyrA): 0.06 µg/mL
3 | 7-[(R)-3-(1-Aminocyclopropyl)pyrrolidin-1-yl]-1-cyclopropyl-6-fluoro-8-methyl-1 h-quinazolinedione Hydrochloride [Example 26b] | 0.25 µg/mL | 2.0 µg/mL | 0.13 µg/mL | 0.13 µg/mL | 0.25 µg/mL | 0.03 µg/mL | 1600 nM |  |  |  |  |  | 
4 | 7-[(R)-3-((S)-1-Aminoethyl)pyrrolidin-1-yl]-1-cyclopropyl-6-fluoro-5,8-dimethyl-1H-quinazolinedione Hydrochloride [Example 41c] | 0.25 µg/mL | 2.0 µg/mL | 0.06 µg/mL | 0.03 µg/mL | 0.03 µg/mL | 0.008 µg/mL | 600 nM |  |  |  |  |  | 
5 | O=C(O)c1cn(C2CC2)c2cc(N3CCNCC3)c(F)cc2c1=O [Ciprofloxacin, ciprofloxacin, reference compound] |  |  |  |  |  |  |  | (30x) | (1000x) | (15x) | (15x) | (123x) | MIC (E. coli B90; Escherichia coli, read-out: Minimum Inhibitory Concentrations E. coli B90): < 0.01 µg/mL; MIC (E. coli MC 4100; Escherichia coli, MC4100, read-out: Minimum Inhibitory Concentrations E. coli MC 4100): < 0.02 µg/mL; MIC (E. coli Tol C; Escherichia coli, read-out: Minimum Inhibitory Concentrations E. coli Tol C): < 0.01 µg/mL; MIC (E. faecalis RB1; Enterococcus faecalis, read-out: Minimum Inhibitory Concentrations E. faecalis RB1): 0.5 µg/mL (≈ 1.51 µM); MIC (S. aureus 29213; Staphylococcus aureus, read-out: Minimum Inhibitory Concentrations S. aureus 29213): 0.5 µg/mL (≈ 1.51 µM); MIC (S. pyogenes C203; Streptococcus pyogenes, read-out: Minimum Inhibitory Concentrations S. pyogenes C203): 0.5 µg/mL (≈ 1.51 µM); PD50 (S. pyogenes): >100.0 mg/kg; MIC (N. gonorrhoeae 2637; Neisseria gonorrhoeae, 2637, read-out: Minimum Inhibitory Concentrations N. g. 2637): 2 ng/mL; MIC (N. gonorrhoeae 2709; Neisseria gonorrhoeae, 2709, read-out: Minimum Inhibitory Concentrations N. g. 2709): 0.06 µg/mL (≈ 0.181 µM); MIC (S. aureus UC-76; Staphylococcus aureus, UC76, read-out: Minimum Inhibitory Concentrations S. aureus UC-76): 0.13 µg/mL (≈ 0.392 µM); MIC (S. aureus 2552; Staphylococcus aureus, 2552, upregulated norA pump, read-out: Minimum Inhibitory Concentrations S. aureus 2552): 2 µg/mL (≈ 6.04 µM)
